Drawing on BindingDB's records for doi:10.1111/cbdd.12779 (Ferdowsi University of Mashhad, 2016), this text covers IC50 for eleven compounds.

Where “and” joins values, the source holds several entries; their conditions need not be identical. Equal entries are not always repeated.

For the test, the target named is T1, Seed linoleate 13S-lipoxygenase-1 (Glycine max, UniProt P08170).
T1 sequence (P08170 whole entry): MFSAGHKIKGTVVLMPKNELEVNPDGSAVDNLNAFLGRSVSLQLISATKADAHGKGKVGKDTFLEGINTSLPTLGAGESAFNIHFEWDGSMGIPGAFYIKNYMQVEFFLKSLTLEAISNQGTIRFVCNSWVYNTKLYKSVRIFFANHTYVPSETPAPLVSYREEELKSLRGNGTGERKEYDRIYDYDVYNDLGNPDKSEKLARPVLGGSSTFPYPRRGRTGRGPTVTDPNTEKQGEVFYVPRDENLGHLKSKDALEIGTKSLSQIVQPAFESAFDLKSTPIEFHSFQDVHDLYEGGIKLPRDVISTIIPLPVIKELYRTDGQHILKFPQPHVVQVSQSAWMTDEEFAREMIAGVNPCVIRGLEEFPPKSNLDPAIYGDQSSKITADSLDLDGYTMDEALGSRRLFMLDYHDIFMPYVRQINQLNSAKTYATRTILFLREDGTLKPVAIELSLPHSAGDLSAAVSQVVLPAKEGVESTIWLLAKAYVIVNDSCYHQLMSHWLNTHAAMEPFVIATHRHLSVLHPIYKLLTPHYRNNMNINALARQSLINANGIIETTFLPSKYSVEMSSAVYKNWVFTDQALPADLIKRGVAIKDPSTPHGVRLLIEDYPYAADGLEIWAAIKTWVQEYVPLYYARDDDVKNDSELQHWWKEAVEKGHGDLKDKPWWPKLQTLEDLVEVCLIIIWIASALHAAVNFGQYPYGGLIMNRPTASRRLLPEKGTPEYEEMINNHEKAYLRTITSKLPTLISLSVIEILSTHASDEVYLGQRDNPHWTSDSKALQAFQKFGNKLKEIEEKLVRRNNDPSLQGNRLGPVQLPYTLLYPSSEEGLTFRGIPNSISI
Kind of test: Lipo-oxygenase Inhibitory Assay. Particulars: pH 7; 25 °C. How it is done:
Solution A was 50 mm DMAB in an 100 mm phosphate buffer (pH 7.0). Solution B was a mixture of 10 mm MBTH (3 mL) and hemoglobin (5 mg/mL, 3 mL) in 50 mm phosphatebuffer at pH 5.0 (25 mL). A linoleic acid solution was prepared by mixing 5 mg of linoleic acid with 50 mg Tween-20 in 3 mL water and then diluted with KOH 100 mmto a final volume of 5 mL. In the standard assay, the sample in ethanol (25 uL), SLO (EC 1,13,11,12; 4000 units/mL; 25 uL) and phosphate buffer, pH 7.0 (50 mm; 900 uL), were mixed in a test-tube and preincubation was carried out for 5 min at room temperature. A control test was done with the same volume of ethanol. Afterthe preincubation, linoleic acid solution (50 uL) was added to start the peroxidation reaction, and, 7 min later, solution A (270 uL) and then solution B (130 uL) were added to start the color formation. Further, 5 min later, 200 uL of a 2% SDS solution was added to terminate the reaction.
Usually IC50 stands for the concentration at which inhibition is half-maximal. Low readings indicate higher potency, high ones lower potency. Regarding `COc1cc(C)cc(OC)c1C/C=C(\C)CCC=C(C)C` [(E)-2-(3,7-Dimethylocta-2,6-dien-1-yl)-1,3-dimethoxy-5-methylbenzene (10)], the 50% inhibitory concentration (IC50) turned out to be 5.3 µM.
The compound `Cc1nc(N2CCN(C)CC2)nc2c1Nc1ccccc1S2` [4-MMPB] showed an IC50 of 22.6 µM.
Next, `COc1cc(C)cc(OC)c1CC=C(C)C` [1,3-Dimethoxy-5-methyl-2-(3-methylbut-2-en-1-yl)benzene (9)]: 7.6 µM; `C=CCc1c(OC)cccc1OC` [2-Allyl-1,3-dimethoxybenzene (6)]: 53.2 µM.
In turn, `C=CCc1c(OC)cc(C)cc1OC` [2-Allyl-1,3-dimethoxy-5-methylbenzene (8)] registered an IC50 of 30.5 µM.
`C=CCc1cc(OC)cc(OC)c1` [1-Allyl-3,5-dimethoxybenzene (2)] yielded an IC50 of 43.2 µM.
Consider `C=CCc1c(OC)cc(OC)cc1OC` [2-Allyl-1,3,5-trimethoxybenzene (7)], for which half-maximal inhibition (IC50) required 83.2 µM.
Next, `COc1cc(C)cc(OC)c1C/C=C(\C)CC/C=C(\C)CCC=C(C)C` [1,3-Dimethoxy-5-methyl-2-((2E,6E)-3,7,11-trimethyldodeca-2,6,10-trien-1-yl)benzene (11)]: 0.52 µM.
Next, `C=CCc1ccc(OC)cc1OC` [1-Allyl-2,4-dimethoxybenzene (5)]: 31.4 µM and 103 µM.
Next, `C=CCc1cccc(OC)c1OC` [1,2-dimethoxy-3-(prop-2-en-1-yl)benzene (3)]: 128 µM; `C=CCc1ccc(OC)c(OC)c1` [METHYLEUGENOL]: 33.3 µM.
